Source: patent publication EP0415456A2, “Xanthine compounds” (priority 1989, dated 1991)
Read-outs that look alike come from different tables or passages of the source.

Assays:
[1] = tested on: glycerol-induced renal failure model; test: renal-protecting effect (glycerol-induced renal failure model); assay type: in vivo; settings: male Wistar rats; for suppression of increases of the serum creatinine and of urine-nitrogen: 0.01 - 10 mg/kg i.p., 24 hours after 50% glycerol s.c. (p < 0.05)
Description: A renal failure is a state wherein the renal function is lowered and the homeostasis of a body fluid can be no more maintained. It is known that an acute renal failure characteristic of uriniferous tubule disorder is caused by subcutaneous or intramuscular injection of glycerol to rats [Can. J. Physiol.
Male Wistar rats were kept deprived or water for 18 hours, and served for the test. A test compound was intraperitoneally administered to the rats (dosage: 1 mℓ/kg) and the rats were anesthetized with ether and 50% glycerol was subcutaneously administered (dosage: 0.8mℓ/100g) to the rats, pinching the dorsal skin. Twenty four hours after the administration of glycerol, the rats were anesthetized with ether and 5 mℓ of blood were collected from the abdominal aorta. The collected blood was allowed to stand for 30 minutes or longer and then centrifuged at 3,000 rpm for 10 minutes, and the amounts of the serum creatinine and urine-nitrogen (UN) contained in the serum were determined by auto analyzer (Olympus AU510) or measured by a creatinine test Wako (Jaffé method) and UN Test Wako (diacetylmonooxime direct method). Both are manufactured by Wako Pure Chemicals Co.
On the other hand, the left kidneys of the blood-sampled rats were removed and placed in formalin-filled vial bottles, and used as samples for the pathological examination.

Wistar rats = test: diuretic effect; assay type: in vivo; settings: urine collected for 6 hours; for Increase in K⁺ excretion (%) / Increase in Na⁺excretion (%) / Increase in Urine (%): relative to control; for Na⁺/K⁺: relative value of control (control 1.00)
Description: Wistar rats (male: 150 - 300 g) were starved for 18 hours prior to the administration of the test compounds. […] Urine was collected for 6 hours after the administration. Urine volume was measured and the electrolytes (Na+ and K+) in the urine were determined with a flame photome[…], Hitachi Ltd., Japan). All parameters are expressed as relative values of control.

male dd-strain mice = test: acute toxicity test; assay type: in vivo
Description: […]. The Minimum lethal dose (MLD) of the compounds was determined by observing whether or not the mice were alive after 7 days of the administration.

A₂ receptor = target: T1, A₂ receptor (Rattus norvegicus, UniProt P30543); test: Adenosine A2 receptor binding (3H-NECA binding); settings: for inhibition at 10 µM / inhibition at 100 µM: read-out: A₂ Receptor Inhibition (%)
T1 construct: A precipitate was prepared from rat corpus striatum; from tissue; host or cells: rat corpus striatum membrane preparation
Description: A precipitate was prepared from rat corpus striatum in a similar manner as in 1) above. The precipitate was suspended by adding a 50 mM Tris HCl buffer containing 10 mM magnesium chloride and 0.02 unit/mg (tissue) of adenosine deaminase (manufactured by Sigma Co.) to adjust the concentration of tissue to 5 mg (wet weight)/mℓ.
The mixture was incubated at 25°C within 120 minutes. The resulting mixture was treated in the same manner as in 1) above to determine its radioactivity.
The inhibition rate of the test compound against the binding of A₂ receptor (³H-NECA binding) was calculated from the following equation: [formula]

Adenosine A₁ Receptor = target: T2, Adenosine A₁ Receptor (Cavia porcellus, UniProt P47745); test: Adenosine A1 receptor binding (3H-CHA binding); parameters: species or system guinea pig; settings: for Ratio of Ki Values [A₂/A₁]: A₂ Ki (rat corpus striatum) / A₁ Ki (guinea pig cerebrum); for Ki: calculated from Cheng-Prusoff's equation, ³H-CHA; for Ki / inhibition at 100 µM / inhibition at 10 µM: guinea pig cerebrum; for inhibition at 100 µM: concentration of tested compound 10⁻⁴ M; for inhibition at 100 µM / inhibition at 10 µM: ³H-CHA 1.1 nM; for inhibition at 10 µM: concentration of tested compound 10⁻⁵ M
T2 construct: from tissue; host or cells: guinea pig cerebrum membrane preparation
T2 sequence (P47745 1-326): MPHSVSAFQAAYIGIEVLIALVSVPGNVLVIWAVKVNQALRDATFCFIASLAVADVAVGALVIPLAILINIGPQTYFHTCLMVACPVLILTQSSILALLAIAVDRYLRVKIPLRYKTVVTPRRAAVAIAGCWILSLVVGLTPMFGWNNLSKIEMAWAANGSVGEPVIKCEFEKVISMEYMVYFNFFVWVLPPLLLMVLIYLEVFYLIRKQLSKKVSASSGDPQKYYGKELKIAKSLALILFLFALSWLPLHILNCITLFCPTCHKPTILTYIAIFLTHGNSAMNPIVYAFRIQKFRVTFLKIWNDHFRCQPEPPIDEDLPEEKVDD
Description: Cerebrum of a guinea pig was suspended into ice cooled 50 mM tris hydroxymethyl aminomethane hydrochloride (Tris HCl) buffer (pH = 7.7), by using Polytron homogenizer (manufactured by Kinematica Co.). The suspension was centrifuged (50,000 x g, 10 minutes), and the precipitate was resuspended by adding the same volume of 50 mM Tris HCl buffer. The suspension was centrifuged under the same conditions, and the precipitate obtained was suspended once again by adding 10 volumes of 50 mM Tris HCl. The tissue suspension was incubated at 37°C for 30 minutes in the presence of 0.02 units/mg tissue of adenosine deaminase (manufactured by Sigma Co.). The resulting tissue suspension was recentrifuged (50,000 x g, 10 minutes), and 50 mM Tris HCl was added to the precipitate to adjust the concentration of tissue to 10 mg (wet weight)/mℓ.
The mixture was incubated at 25°C for 90 minutes, and the resulting reaction was stopped by rapid vacuum filtration through a glass fiber filter (GF/C manufactured by Whatman Co.) followed by immediately washing three times with 5 mℓ each of ice cold 50 mM Tris HCl buffer. […] Its radioactivity was then determined by a scintillation counter (manufactured by Packard Instrument Co.).
The inhibition rate of the test compounds against the binding of A₁ […] (³H-CHA binding) was calculated from the following equation: [formula]
• 1. […] The inhibition constant (Ki value) shown in the table was calculated from Cheng-Prusoff's equation.

[2] = ³H-NECA with CPA, rat corpus striatum, read-out: A₂ Receptor Ki
[3] = amount of the administration 6.25 mg.kg, oral
[4] = 300 mg/kg orally administered, male dd-strain mice, observed 7 days after administration

T1 sequence (P30543 whole entry): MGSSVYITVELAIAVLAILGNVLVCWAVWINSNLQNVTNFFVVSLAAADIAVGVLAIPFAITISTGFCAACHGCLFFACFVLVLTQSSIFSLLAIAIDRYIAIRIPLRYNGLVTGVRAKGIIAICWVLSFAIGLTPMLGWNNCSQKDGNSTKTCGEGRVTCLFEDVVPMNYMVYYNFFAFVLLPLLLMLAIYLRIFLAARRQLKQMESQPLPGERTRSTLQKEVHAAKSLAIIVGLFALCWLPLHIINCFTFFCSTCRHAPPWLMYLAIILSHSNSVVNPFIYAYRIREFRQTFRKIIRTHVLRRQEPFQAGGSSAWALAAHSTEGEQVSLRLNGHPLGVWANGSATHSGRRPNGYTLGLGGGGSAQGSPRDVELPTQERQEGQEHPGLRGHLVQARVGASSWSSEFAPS

Compound | Increase in K⁺ excretion (%) (Wistar rats; 25 mg/kg oral) | Increase in Na⁺excretion (%) (Wistar rats; 25 mg/kg oral) | Increase in Urine (%) (Wistar rats; 25 mg/kg oral) | Na⁺/K⁺ (Wistar rats; 25 mg/kg oral) | inhibition at 10 µM (A₂ receptor) [%] | inhibition at 100 µM (A₂ receptor) [%] | further results
8-[(1R*,2R*,5S*)-Bicyclo[2.2.1]heptan-2-yl]methyl-1,3-dipropylxanthine [Compound 16] | 38 | 191 | 141 | 2.12 | – | – | suppression of increases of the serum creatinine and of urine-nitrogen [1]: significantly suppressed; pathological examination of removed kidneys: state of kidneys ([1]; i.p., left kidney removed 24 hours after 50% glycerol s.c.): significantly improved
CCCn1c(=O)c2[nH]c([C@@H]3C[C@@H]4C=C[C@@H]3C4)nc2n(CCC)c1=O (relative stereo) [Compound 2, 8-[(1R*,4S*,5R*)-2-bicyclo[2.2.1]hepten-5-yl]-1,3-dipropylxanthine] | 67 | 109 | 87 | 1.25 | – | – | Minimum lethal dose (MLD) (male dd-strain mice; mouse, in vivo, 10080 min): more than 300 mg/kg
CCCn1c(=O)c2[nH]c([C@H]3CC[C@H]4CCC[C@H]43)nc2n(CCC)c1=O (relative stereo) [Compound 6, 8-[(1R*,2S*,5R*)-bicyclo[3.3.0]oxtan-2-yl]-1,3-dipropylxanthine] | – | – | – | – | 70 | 85 | Ki (A₂ receptor; [2]): 560 nM; Ratio of Ki Values [A₂/A₁] (Adenosine A₁ Receptor): 112; Ki (Adenosine A₁ Receptor): 5 nM; inhibition at 100 µM (Adenosine A₁ Receptor): 101%; inhibition at 10 µM (Adenosine A₁ Receptor): 100%; Increase in K⁺ excretion (%) (Wistar rats; [3]): 87%; Increase in Na⁺excretion (%) (Wistar rats; [3]): 252%; Increase in Urine (%) (Wistar rats; [3]): 330%; Na⁺/K⁺ (Wistar rats; [3]): 1.88
CCCn1c(=O)c2c(nc([C@@H]3CC[C@H]4CCC[C@H]43)n2C)n(CCC)c1=O (relative stereo) [Compound 18, 8-[(1R*,2R*,5R*)-Bicyclo[3.3.0]octan-2-yl]-1,3-dipropyl-7-methylxanthine] | – | – | – | – | – | – | Minimum lethal dose (MLD) (male dd-strain mice; mouse, in vivo, 10080 min): more than 300 mg/kg
CCCn1c(=O)c2[nH]c([C@@H]3CC[C@H]4CCC[C@H]43)nc2n(CCC)c1=S (relative stereo) [Compound 24, 8-[(1R*,2R*,5R*)-Bicyclo[3.3.0]octan-2-yl]-1,3-dipropyl-2-thioxanthine] | 61 | 125 | 112 | 1.40 | – | – | Minimum lethal dose (MLD) (male dd-strain mice; [4]): more than 300 mg/kg
Cn1c(=O)c2[nH]cnc2n(C)c1=O [Aminophylline, reference compound] | 17 | 89 | 34 | 1.62 | – | – | suppression of increases of the serum creatinine and of urine-nitrogen [1]: weak effect
Nc1nc2ccc(Cl)cc2c2nc(-c3ccco3)nn12 [CGS 15943, reference compound] | – | – | – | – | 99 | 97 | Ki (A₂ receptor): 0.73 nM
CCCn1c(=O)c2nc(CC34CC5CC(CC(C5)C3)C4)[nH]c2n(CCC)c1=O [Compound 15, 8-(Adamantan-1-yl)methyl-1,3-dipropylxanthine] | – | – | – | – | – | – | Minimum lethal dose (MLD) (male dd-strain mice; mouse, in vivo, 10080 min): more than 300 mg/kg
CCCn1c(=O)c2c(nc(C34CC5CC(CC3C5)C4)n2C)n(CCC)c1=O [Compound 20, 1,3-Dipropyl-7-methyl-8-(noradamantan-3-yl)xanthine] | – | – | – | – | – | – | Minimum lethal dose (MLD) (male dd-strain mice; [4]): more than 300 mg/kg
CCn1c(=O)c2[nH]c(C34CC5CC(CC3C5)C4)nc2n(CC)c1=O [Compound 28, 8-(Noradamantan-3-yl)-1,3-diethylxanthine] | – | – | – | – | 61 | 78 | Ki (A₂ receptor; [2]): 940 nM; Ratio of Ki Values [A₂/A₁] (Adenosine A₁ Receptor): 132; Ki (Adenosine A₁ Receptor): 7.1 nM; inhibition at 100 µM (Adenosine A₁ Receptor): 101%; inhibition at 10 µM (Adenosine A₁ Receptor): 100%
CCCCn1c(=O)c2[nH]c(C34CC5CC(CC3C5)C4)nc2n(CCCC)c1=O [Compound 29, 8-(Noradamantan-3-yl)-1,3-dibutylxanthine] | 65 | 137 | 123 | 1.43 | 72 | 78 | Ki (A₂ receptor; [2]): 970 nM; Ratio of Ki Values [A₂/A₁] (Adenosine A₁ Receptor): 107; Ki (Adenosine A₁ Receptor): 9.1 nM; inhibition at 100 µM (Adenosine A₁ Receptor): 100%; inhibition at 10 µM (Adenosine A₁ Receptor): 100%
CC(C)Cn1c(=O)n(C)c(=O)c2[nH]c(C34CC5CC(CC3C5)C4)nc21 [Compound 30, 8-(Noradamantan-3-yl)-3-isobutyl-1-methylxanthine] | 50 | 126 | 112 | 1.50 | – | – | –
NS(=O)(=O)c1cc(C(=O)O)c(NCc2ccco2)cc1Cl [Furosemide, reference compound] | – | – | 75 | 1.07 | – | – | effect on serum creatinine ([1]; i.p., 24 hours after 50% glycerol s.c.): showed a tendency to increase the serum creatinine
CCCn1c(=O)c2[nH]c(-c3ccc(S(=O)(=O)N(C)CCN(C)C)cc3)nc2n(CCC)c1=O [PD 115199, reference compound] | – | – | – | – | 94 | 98 | Ki (A₂ receptor; [2]): 26 nM; Ratio of Ki Values [A₂/A₁] (Adenosine A₁ Receptor): 0.14; Ki (Adenosine A₁ Receptor): 190 nM; inhibition at 100 µM (Adenosine A₁ Receptor): 100%; inhibition at 10 µM (Adenosine A₁ Receptor): 97%; suppression of increases of the serum creatinine and of urine-nitrogen [1]: totally ineffective
CCCn1c(=O)c2[nH]c(-c3ccc(OCC(=O)NCCN)cc3)nc2n(CCC)c1=O [XAC, reference compound] | – | – | – | – | – | – | suppression of increases of the serum creatinine and of urine-nitrogen [1]: weak effect
